The text below walks through data of patent publication US5756463A, “Use of insulin and IGF-1” (Pharmacia & Upjohn AB, priority 1994, dated 1998).

For data set [1], the system named is Male Sprague-Dawley rats. The data set can be described thus: Example 1: body weight gain and nitrogen retention in dexamethasone-infused rats, 8-day subcutaneous mini-pump infusion. Type of data set: in vivo, rat. Particulars: 8 days. As to the method: On day zero the rats were anaesthetized intraperitoneally with 0.4 ml per 100 g body weight of a mixture of Rompun (20 mg.ml^-1), Ketalar (50 mg.ml^-1) and Saline (0.9%) in 1:2:3 volume proportions. The hair on the back of the rats was shaved off and the exposed skin carefully washed with 0.05% chlorhexidine (Pharmacia, Stockholm, Sweden) and 0.4 % jodopax (Molnlycke, Goteborg, Sweden), both being diluted in 70% alcohol. Two mutually parallel incisions, each of 15 mm in length, were then made along the dorsal midline. The incisions penetrated the epidermis, dermis and subcutaneous muscle but left the deep fascia intact. Two subcutaneous pockets were made on both sides of the incisions by separating the subcutaneous muscle from the deep fascia. One (Exp. I) or two (Exp. 2) mini-pumps were implanted in each pocket. The wounds were closed with sutures 4-0 (Johnson & Johnson). Osmotic mini-pumps (Alzet 2001, Alza Corporation, Palo Alto, USA) releasing 1 μl.h^-1 for 8 days were used for continuous delivery of hormones and Dex to the animals. The pumps were filled to a volume of 0.22 ml with solutions of rhGH (14.4 mg.ml^-1, Genotropin®, Pharmacia), […] (20 mg.ml^-1, Igef®, Pharmacia, Kabi Peptide Hormones, Stockholm, Sweden), insulin (1.57 mg/ml, Actrapid®, Novo, Copenhagen, Denmark), Dex (1.04 mg.ml^-1, Decadron, Merck Sharp & Dohme International, […], USA) or Saline (0.9%). Two (Example 1) or four (Example 2) pumps combined as described above were implanted in each rat. Implantation of the pumps was performed under strictly aseptic conditions. Total feed intake was registered throughout the full 8 day experimental period. Urine and faeces were collected daily, pooled and kept at -20° C. until analysed. Excreta was collected by housing the animals in individual metabolism cages that were specially designed for the separation of urine and faeces. In order to inhibit urease-activity in the urine, 1 ml of 5% sulphuric acid was pipetted every morning in the collection vessels. The 24 hour collections of urine were pooled individually for each treatment period and immediately frozen after the collection. Similarly, the samples of faeces were also pooled individually for each treatment period and kept frozen (-20° C.) until analysis. Urea in serum was determined spectrophotometrically by using the Urea UV Uni-Kit I (Roche) with an autoanalyzer (Cobas Mira, Roche Co, Basel, Switzerland). Urea values were expressed in mmol/l. The total nitrogen content in urine was determined with the aid of the Antek Pyro-Chemiluminiscence Nitrogen System. The apparatus used comprised the […] nitrogen analyser with Liquid Auto Sampler 736-2 and a pyrolysis tube with a ceramic […] Instruments Inc., Houston, Tex., U.S.A.). The frozen urinary samples were thawed and diluted 1:100 with 0.1 M HCl and then analysed. The urinary nitrogen values were then calculated as mg nitrogen excreted. Total nitrogen in faeces was determined by an established Kjeldahl method (Kjeltec System, Tecator AB, Halsingborg, Sweden). The frozen faecal samples were thawed and dried in an oven at 60° C. overnight. The weight of the dried sample was noted and the sample then ground. 0.20 g of the milled faecal sample was mixed in a Kjeldahl digestion tube with 10.0 ml of concentrated sulphuric acid. 2.0 ml of a 30% solution of H202 (30% Perhydrol, Merck, Darmstadt, Germany) was added and mixed carefully. One catalyst tablet (Kjeltabs CA, Thompson & Capper, Runcom, Cheshire, UK) was added to each sample. The mixture was digested at […] for at least one hour or until complete bleaching of the sample was achieved. […] The faecal nitrogen values were calculated as mg nitrogen excreted. Data were subjected to a one-way analysis of variance in which the effect of treatment was considered the prime source of variation. Calculations were executed by the GLM procedure of the SAS program (SAS 1985). […]

Data set [2] relates to Male Sprague-Dawley rats. The data set can be described thus: Example 2: feed intake, nitrogen digestibility and nitrogen retention in dexamethasone-infused rats, 8-day mini-pump infusion of peptide combinations. The class given is in vivo, rat. The following applies: 8 days; for relative nitrogen retention (retained N/digested N×100): Dex 26 μg/day with saline or with insulin 39, rhGH 360, rhIGF-I 500 μg/day, mean, pooled SE, saline alone 38.7%; for nitrogen retention, effect compared with Dex without peptide: Dex 26 μg/day plus peptide. As to the method: On day zero the rats were anaesthetized intraperitoneally with 0.4 ml per 100 g body weight of a mixture of Rompun (20 mg.ml^-1), Ketalar (50 mg.ml^-1) and Saline (0.9%) in 1:2:3 volume proportions. The hair on the back of the rats was shaved off and the exposed skin carefully washed with 0.05% chlorhexidine (Pharmacia, Stockholm, Sweden) and 0.4 % jodopax (Molnlycke, Goteborg, Sweden), both being diluted in 70% alcohol.
Two mutually parallel incisions, each of 15 mm in length, were then made along the dorsal midline. The incisions penetrated the epidermis, dermis and subcutaneous muscle but left the deep fascia intact. Two subcutaneous pockets were made on both sides of the incisions by separating the subcutaneous muscle from the deep fascia. One (Exp. I) or two (Exp. 2) mini-pumps were implanted in each pocket. The wounds were closed with sutures 4-0 (Johnson & Johnson).
Osmotic mini-pumps (Alzet 2001, Alza Corporation, Palo Alto, USA) releasing 1 μl.h^-1 for 8 days were used for continuous delivery of hormones and Dex to the animals. The pumps were filled to a volume of 0.22 ml with solutions of rhGH (14.4 mg.ml^-1, Genotropin®, Pharmacia), rhlGF-I (20 mg.ml^-1, Igef®, Pharmacia, Kabi Peptide Hormones, Stockholm, Sweden), insulin (1.57 mg/ml, Actrapid®, Novo, Copenhagen, Denmark), Dex (1.04 mg.ml^-1, Decadron, Merck Sharp & Dohme International, Rathway, USA) or Saline (0.9%). Two (Example 1) or four (Example 2) pumps combined as described above were implanted in each rat. Implantation of the pumps was performed under strictly aseptic conditions.
Total feed intake was registered throughout the full 8 day experimental period. Urine and faeces were collected daily, pooled and kept at -20° C. until analysed. Excreta was collected by housing the animals in individual metabolism cages that were specially designed for the separation of urine and faeces. In order to inhibit urease-activity in the urine, 1 ml of 5% sulphuric acid was pipetted every morning in the collection vessels. The 24 hour collections of urine were pooled individually for each treatment period and immediately frozen after the collection. Similarly, the samples of faeces were also pooled individually for each treatment period and kept frozen (-20° C.) until analysis.
Urea in serum was determined spectrophotometrically by using the Urea UV Uni-Kit I (Roche) with an autoanalyzer (Cobas Mira, Roche Co, Basel, Switzerland). Urea values were expressed in mmol/l. The total nitrogen content in urine was determined with the aid of the Antek Pyro-Chemiluminiscence Nitrogen System. The apparatus used comprised the Antek 7000N nitrogen analyser with Liquid Auto Sampler 736-2 and a pyrolysis tube with a ceramic liner (Antek Instruments Inc., Houston, Tex., U.S.A.). The frozen urinary samples were thawed and diluted 1:100 with 0.1 M HCl and then analysed. The urinary nitrogen values were then calculated as mg nitrogen excreted.
Total nitrogen in faeces was determined by an established Kjeldahl method (Kjeltec System, Tecator AB, Halsingborg, Sweden). The frozen faecal samples were thawed and dried in an oven at 60° C. overnight. The weight of the dried sample was noted and the sample then ground. 0.20 g of the milled faecal sample was mixed in a Kjeldahl digestion tube with 10.0 ml of concentrated sulphuric acid. 2.0 ml of a 30% solution of H202 (30% Perhydrol, Merck, Darmstadt, Germany) was added and mixed carefully. One catalyst tablet (Kjeltabs CA, Thompson & Capper, Runcom, Cheshire, UK) was added to each sample. The mixture was digested at […] for at least one hour or until complete bleaching of the sample was achieved. The nitrogen content of this solution was determined after alkalinization by steam distillation of the ammonia and automated titration of the distillate. The faecal nitrogen values were calculated as mg nitrogen excreted.
Data were subjected to a one-way analysis of variance in which the effect of treatment was considered the prime source of variation.

[3] abbreviates: Dex 26, 13 or 6.5 μg/day (every Dex dose), rhGH 360 μg/day or rhIGF-I 500 μg/day s.c. mini-pump, compared with saline.

“Also recorded” adds a separate entry of the source.

For “recombinant human insulin-like growth factor I [rhIGF-I]”, the body weight gain result in data set [1] (setting [3]) was “significantly (p<0.05) higher weight gain in comparison with saline; also recorded: significantly (p<0.05) increased”. Moreover, the retention of nitrogen entry in data set [1] (Dex 26, 13 or 6.5 μg/day, rhIGF-I 500 μg/day, compared with saline and rhGH) is reported as “significantly (p<0.05) higher”. In addition, the “relative nitrogen retention (retained N/digested N×100)” value (“relative nitrogen retention” below) in data set [2] was 23.0%.

With `C[C@@H]1C[C@H]2[C@@H]3CCC4=CC(=O)C=C[C@]4(C)[C@@]3(F)[C@@H](O)C[C@]2(C)[C@@]1(O)C(=O)CO` [Dex, dexamethasone, reference compound], the “body weight gain, effect of Dex dose” value in data set [1] (Dex 6.5, 13, 26 μg/day) is recorded as “general decrease with increased Dex dose”. Further, the “relative nitrogen retention” value in data set [2] was found to be 7.2%. Moreover, the “reduction of feed intake” value in data set [2] (Dex 26 μg/day) is listed as “approximately 20%”.

For the compound recombinant human growth hormone [rhGH], the body weight gain result is on record as “opposite effect” in data set [1] (setting [3]); “opposite effect (p<0.05)” in data set [1] (Dex 26, 13 or 6.5 μg/day (every Dex dose), rhGH 360 μg/day or rhIGF-I 500 μg/day s.c. mini-pump, compared with saline, listed as hGH); “negative values for body weight gain” in data set [1] (medium and high Dex infusion dose (13 and 26 μg/day), rhGH 360 μg/day). In addition, the “nitrogen retention, effect compared with Dex without peptide” value in data set [2] is on record as “without effect”. In data set [2], the “relative nitrogen retention” value is recorded as 3.8%.

Regarding insulin, in data set [2], the “nitrogen retention, effect compared with Dex without peptide” value is “without effect” and the “relative nitrogen retention” value is listed as 11.9%.
